Patent US4748161A, “Triterpenyl esters of organic acids and hypolipidemic agents composed of them” (Amano Pharmaceutical Co., Ltd., priority 1984, dated 1988)

Test system: serum lipids and serum lipid hydroperoxide
Assay: Pharmacological test method A for anti-hyperlipidemic activity (serum lipids, 2 weeks feeding)
Type: in vivo, male Wistar strain rats
Details: for AI [(TC - HDL-C)/(HDL-C)] / HDL-C in serum / LPO in serum / PL in serum / TC in serum / TG in serum: 1% in hyperlipidemic diet, 2 weeks
Procedure, shortened: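 Male Wistar rats (100±lg, 10 per group) fed 10 g/day for 2 weeks of a 1% cholesterol/0.5% cholic acid diet, test groups with 1% each of cycloartenol, 24-methylenecycloartanol and cyclobranol. After 16 h fast, aortic blood serum assayed enzymatically/colorimetrically for TC, HDL-C, TG, PL, LPO.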

Compound	AI [(TC - HDL-C)/(HDL-C)]	HDL-C in serum [mg/dL]	LPO in serum [nmol/mL]	PL in serum [mg/dL]	TC in serum [mg/dL]	TG in serum [mg/dL]	AI % of diff. (versus control group)	AI Diff. (versus control group)	HDL-C % of diff. (versus control group)	HDL-C Diff. (versus control group)	LPO % of diff. (versus control group)	LPO Diff. (versus control group)	PL % of diff. (versus control group)	PL Diff. (versus control group)	TC % of diff. (versus control group) [%]	TC Diff. (versus control group) [mg/dL]	TG % of diff. (versus control group)	TG Diff. (versus control group)	AI Diff. (Table 2, versus control group)
CC(C)=CCCC(C)C1CCC2(C)C3CCC4C(C)(C)C(OC(=O)C=Cc5ccc([N+](=O)[O-])cc5)CCC45CC35CCC12C (stereo not drawn) [Example 101, cycloartenyl ester of p-nitro cinnamic acid]	3.668	46.4	2.12	150.7	216.6	28.2	-53.2%	-4.172	+25.7%	+9.5 mg/dl	-24.3%	-0.68 nmol/mL	-9.0%	-14.9 mg/dL	-33.6	-109.6	-17.1%	-5.8 mg/dL	–
cycloartenyl-3,4-diacetoxycinnamate [Example 1]	1.410	72.0	2.03	173.7	173.5	38.0	-7.1%	–	-11.6%	-9.5 mg/dL	-10.6%	-0.24 nmol/mL	+0.06%	+0.1 mg/dl	-15.4	-31.6	+10.9%	+3.7 mg/dl	-1.107 mg/dL
CCOc1cc(C=CC(=O)OC2CCC34CC35CCC3(C)C(C(C)CCC(C)=C(C)C)CCC3(C)C5CCC4C2(C)C)ccc1O (stereo not drawn) [Example 71, cyclobranyl-3-ethoxy-4-hydroxycinnamate]	0.523	106.0	1.96	157.7	161.4	32.9	-47.8%	-0.479	+10.2%	+9.8 mg/dl	-15.9%	-0.37 nmol/mL	-12.8%	-23.2 mg/dL	16.2	-31.2	-2.8%	-0.9 mg/dL	–
CC(C)=C(C)CCC(C)C1CCC2(C)C3CCC4C(C)(C)C(OC(=O)c5ccccc5O)CCC45CC35CCC12C (stereo not drawn) [Example 41, cyclobranyl-o-hydroxybenzoate]	0.890	92.9	2.01	156.7	175.6	41.5	-47.1%	-0.794	+14.8%	+12.0 mg/dl	-13.0%	-0.30 nmol/mL	-12.8%	-23.0 mg/dL	19.1	-41.5	-3.0%	-1.3 mg/dL	–
Cycloartenyl-3,4-dipropionyloxycinnamate [Example 3]	1.605	76.8	2.40	167.0	200.1	33.3	+5.8%	–	-5.8%	-4.7 mg/dL	+5.8%	+0.13 nmol/ml	-3.8%	-6.6 mg/dL	-2.4	-5.0	-2.9%	-1.0 mg/dL	+0.088 mg/dl
CCOc1cc(C(=O)OC2CCC34CC35CCC3(C)C(C(C)CCC(C)=C(C)C)CCC3(C)C5CCC4C2(C)C)ccc1O (stereo not drawn) [Example 62, cyclobranyl-3-ethoxy-4-hydroxybenzoate]	0.474	108.2	1.94	156.5	159.5	32.0	-52.7%	-0.528	+12.5%	+12.0 mg/dl	-16.8%	-0.39 nmol/mL	-13.5%	-24.4 mg/dL	17.2	-33.1	-3.6%	-1.2 mg/dL	–
CC(C)=C(C)CCC(C)C1CCC2(C)C3CCC4C(C)(C)C(OC(=O)c5ccc(O)cc5)CCC45CC35CCC12C (stereo not drawn) [Example 58, cyclobranyl-p-hydroxybenzoate]	1.318	62.0	1.82	121.3	143.7	26.8	-25.4%	-0.449	+3.0%	+1.8 mg/dl	-28.1%	-0.71 nmol/mL	-11.3%	-15.4 mg/dL	-13.7	-22.9	-1.5%	-0.4 mg/dL	–
CCCCC/C=C\C/C=C\CCCCCCCC(=O)OC1CCC23CC24CCC2(C)C(C(C)CCC(C)=C(C)C)CCC2(C)C4CCC3C1(C)C (stereo not drawn) [Example 51, cyclobranyllinolate]	0.623	96.4	1.69	146.0	156.5	34.7	-49.0%	-0.599	+11.5%	+9.9 mg/dl	-24.4%	-0.55 nmol/mL	-15.4%	-26.6 mg/dL	-18.6	-35.7	-4.3%	-1.6 mg/dL	–
CC(C)=CCCC(C)C1CCC2(C)C3CCC4C(C)(C)C(OC(=O)c5ccccc5O)CCC45CC35CCC12C (stereo not drawn) [Example 8, cycloartenyl-o-hydroxybenzoate]	0.759	101.1	2.01	148.8	177.8	41.3	-54.9%	-0.925	+25.0%	+20.2 mg/dl	-13.0%	-0.30 nmol/mL	-17.2%	-30.9 mg/dL	-18.1	-39.3	-3.5%	-1.5 mg/dL	–
